According to PubChem BioAssay (NCI):
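Dose response: 5 concentrations. Exposure: 48 h. Format: 96-well plates. Endpoint: linear interpolation; highest concentration if not reached. GI50 is the concentration that inhibits growth by half. TGI: concentration producing complete growth inhibition.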

Experiments:
Assay in all cases: growth of human tumour cells (NCI), 48 h
[1] = system: ACHN renal
[2] = system: LOX IMVI melanoma
[3] = system: SF-295 CNS
[4] = system: SK-MEL-5 melanoma
[5] = system: UO-31 renal
[6] = system: 786-0 renal
[7] = system: A498 renal
[8] = system: A549 NSCLC
[9] = system: BT-549 breast
[10] = system: CAKI-1 renal
[11] = system: CCRF-CEM leukemia
[12] = system: COLO 205 colon
[13] = system: DU-145 prostate
[14] = system: HCC-2998 colon
[15] = system: HCT-116 colon
[16] = system: HCT-15 colon
[17] = system: HL-60(TB) leukemia
[18] = system: HOP-62 NSCLC
[19] = system: HOP-92 NSCLC
[20] = system: HS 578T breast
[21] = system: HT29 colon
[22] = system: IGROV1 ovarian
[23] = system: K-562 leukemia
[24] = system: KM12 colon
[25] = system: M14 melanoma
[26] = system: MALME-3M melanoma
[27] = system: MCF7 breast
[28] = system: MDA-MB-231 breast
[29] = system: MDA-MB-435
[30] = system: MOLT-4 leukemia
[31] = system: NCI-H226 lung
[32] = system: NCI-H23 lung
[33] = system: NCI-H460 lung
[34] = system: NCI-H522 lung
[35] = system: NCI/ADR-RES ovarian
[36] = system: OVCAR-3 ovarian
[37] = system: OVCAR-4 ovarian
[38] = system: OVCAR-5 ovarian
[39] = system: OVCAR-8 ovarian
[40] = system: PC-3 prostate
[41] = system: RPMI-8226 leukemia
[42] = system: SF-268 CNS
[43] = system: SF-539 CNS
[44] = system: SK-MEL-2 melanoma
[45] = system: SK-MEL-28 melanoma
[46] = system: SK-OV-3 ovarian
[47] = system: SN12C renal
[48] = system: SNB-19 CNS
[49] = system: SNB-75 CNS
[50] = system: SR leukemia
[51] = system: SW-620 colon
[52] = system: T-47D breast
[53] = system: TK-10 renal
[54] = system: U251 CNS
[55] = system: UACC-257 melanoma
[56] = system: UACC-62 melanoma

## OCCNc1nc(NCCO)nc(Nc2ccc(C3=NN(c4cc(Cl)cc(Cl)c4)C(c4ccc(C(F)(F)F)cc4)C3)cc2)n1 (configuration not stated)
[1]
  GI50: 1.37 µM
  TGI: 2.66 µM
[2]
  GI50: 1.56 µM
  TGI: 2.97 µM
[3]
  GI50: 1.36 µM
  TGI: 2.71 µM
[4]
  GI50: 1.72 µM
  TGI: 3.11 µM
[5]
  GI50: 1.55 µM
  TGI: 2.92 µM

## Cc1ccc2c(c1)C(=O)/C(=C/c1ncc([N+](=O)[O-])n1C)O2
[6]
  GI50: 2.16 µM
  TGI: 5.31 µM
[7]
  GI50: 1.99 µM
  TGI: 6.63 µM
[8]
  GI50: 2.74 µM
  TGI: 9.29 µM
[1]
  GI50: 0.489 µM
  TGI: 9.11 µM
[9]
  GI50: 1.95 µM
  TGI: 5.48 µM
[10]
  GI50: 0.665 µM
  TGI: 7.54 µM
[11]
  GI50: 0.324 µM
  TGI: 2.95 µM
[12]
  GI50: 1.99 µM
  TGI: 5.09 µM
[13]
  GI50: 2.65 µM
  TGI: 7.63 µM
[14]
  GI50: 2.29 µM
  TGI: 5.4 µM
[15]
  GI50: 0.282 µM
  TGI: 0.886 µM
[16]
  GI50: 0.369 µM
  TGI: 8.78 µM
[17]
  GI50: 1.88 µM
  TGI: 9.71 µM
[18]
  GI50: 5.79 µM
  TGI: 16.9 µM
[19]
  GI50: 2.24 µM
  TGI: > 19.8 µM
[20]
  GI50: 1.94 µM
  TGI: > 23.2 µM
[21]
  GI50: 0.491 µM
  TGI: 3.36 µM
[22]
  GI50: 1.96 µM
  TGI: > 23.7 µM
[23]
  GI50: 0.598 µM
  TGI: > 24.9 µM
[24]
  GI50: 1.67 µM
  TGI: 5.21 µM
[2]
  GI50: 0.404 µM
  TGI: 1.23 µM
[25]
  GI50: 1.11 µM
  TGI: 4.9 µM
[26]
  GI50: 1.8 µM
  TGI: 4.37 µM
[27]
  GI50: 0.534 µM
  TGI: 9.88 µM
[28]
  GI50: 1.56 µM
  TGI: 6.92 µM
[29]
  GI50: 0.371 µM
  TGI: 1.88 µM
[30]
  GI50: 0.5 µM
  TGI: 7.43 µM
[31]
  GI50: 4.62 µM
  TGI: 17.4 µM
[32]
  GI50: 2.28 µM
  TGI: 6.56 µM
[33]
  GI50: 2.05 µM
  TGI: 5.97 µM
[34]
  GI50: 1.5 µM
  TGI: 3.38 µM
[35]
  GI50: 2.24 µM
  TGI: 7.04 µM
[36]
  GI50: 2.53 µM
  TGI: 6.55 µM
[37]
  GI50: 2.15 µM
  TGI: > 22.7 µM
[38]
  GI50: 2.7 µM
  TGI: > 27 µM
[39]
  GI50: 0.481 µM
  TGI: 7 µM
[40]
  GI50: 2.35 µM
  TGI: > 24.9 µM
[41]
  GI50: 1.6 µM
  TGI: 5.63 µM
[42]
  GI50: 1.93 µM
  TGI: 5.53 µM
[3]
  GI50: 2.22 µM
  TGI: 7.82 µM
[43]
  GI50: 2.26 µM
  TGI: 6.19 µM
[44]
  GI50: 1.88 µM
  TGI: 3.54 µM
[45]
  GI50: 2.34 µM
  TGI: 7.29 µM
[4]
  GI50: 1.14 µM
  TGI: 2.51 µM
[46]
  GI50: 2.53 µM
  TGI: 7.24 µM
[47]
  GI50: 1.77 µM
  TGI: 6.55 µM
[48]
  GI50: 2.36 µM
  TGI: > 25.6 µM
[49]
  GI50: 3.14 µM
  TGI: 22.8 µM
[50]
  GI50: 0.0379 µM
  TGI: 0.431 µM
[51]
  GI50: 0.271 µM
  TGI: 2.3 µM
[52]
  GI50: 20.4 µM
  TGI: 76.5 µM
[53]
  GI50: 3.19 µM
  TGI: 11 µM
[54]
  GI50: 1.93 µM
  TGI: 5.32 µM
[55]
  GI50: 1.98 µM
  TGI: 5.65 µM
[56]
  GI50: 1.38 µM
  TGI: 3.84 µM
[5]
  GI50: 1.17 µM
  TGI: 5.04 µM
